Experimental findings from patent publication US20190218226A1, “PRODRUGS OF ANTICANCER AGENTS INDOTECAN AND INDIMITECAN” (Purdue Research Foundation, priority 2016, published 2019) are described below.

Where two headings read alike, the source gives them in different places.

For one data set, the system named is HOP-62. Put plainly: NCI60 antiproliferative screen, lung HOP-62. Conditions: HOP-62, 48 h, sulforhodamine B, read-out: Cytotoxicity (GI50) lung HOP-62. It counts as cell-based, human. The protocol: (§1) All of the indenoisoquinolines were tested for antiproliferative activity in the National Cancer Institute's 60 cell line screen (NCI60). The cells were incubated with the tested compounds at 100, 10, 1, 0.1, and 0.01 μM concentrations for 48 h before treatment with sulforhodamine B dye. Optical densities were recorded, and their ratios relative to that of the control were plotted as percentage growth against the log 10 of the tested compound concentrations. The concentration that corresponds to 50% growth inhibition (GI50) is calculated by interpolation between the points located above and below the 50% percentage growth. The mean-graph midpoint (MGM) is an estimated average of the GI50 values derived from the NCI collection of 60 human cancer cell lines, where during the MGM calculation, anticancer agents with GI50 values that are outside the testing range of 0.01-100 μM are arbitrarily assigned the values of 0.01 and 100 μM, respectively. […] Also, the GI50 values of many of the substances vs. individual human cancer cell lines are below the lowest concentration used (0.01 μM) in the standard NCI testing protocol. […] For example, the MGM cytotoxicity values of 9, 15-17, and 19 are all very close to each other, but the Top1 inhibitory activities range from +++(+) to 0.

In the next data set the test system is HCT-116. Put plainly: NCI60 antiproliferative screen, colon HCT-116. It counts as cell-based, human. Conditions: HCT-116, 48 h, sulforhodamine B, read-out: Cytotoxicity (GI50) Colon HCT-116. Here is the method:
as §1

The next data set has as its system SF-539. Put plainly: NCI60 antiproliferative screen, CNS SF-539. To be noted: SF-539, 48 h, sulforhodamine B, read-out: Cytotoxicity (GI50) CNS SF-539. It counts as cell-based, human. The protocol: as §1
The next data set concerns UACC-62. Briefly: NCI60 antiproliferative screen, melanoma UACC-62. Conditions: UACC-62, 48 h, sulforhodamine B, read-out: Cytotoxicity (GI50) melanoma UACC-62. It counts as cell-based, human. Here is the method: as §1
In a further data set the test system is OVCAR-3. Briefly: NCI60 antiproliferative screen, ovarian OVCAR-3. To be noted: OVCAR-3, 48 h, sulforhodamine B, read-out: Cytotoxicity (GI50) Ovarian OVCAR-3. It counts as cell-based, human. The protocol: as §1
The test system of the next data set is SN12C. Put plainly: NCI60 antiproliferative screen, renal SN12C. It counts as cell-based, human. Conditions: 48 h, sulforhodamine B, read-out: Cytotoxicity (GI50) renal SN12C. Here is the method: as §1
Another data set deals with DU-145. Put plainly: NCI60 antiproliferative screen, prostate DU-145. It counts as cell-based, human. To be noted: DU-145, 48 h, sulforhodamine B, read-out: Cytotoxicity (GI50) prostate DU-145. The protocol:
as §1

In the next data set the test system is MCF-7. Briefly: NCI60 antiproliferative screen, breast MCF-7. It counts as cell-based, human. To be noted: MCF-7, 48 h, sulforhodamine B, read-out: Cytotoxicity (GI50) breast MCF-7. Here is the method: as §1
Data set [1] concerns all human cancer cell lines successfully tested (NCI60). Put plainly: NCI60 mean graph midpoint for growth inhibition. It counts as cell-based. Conditions: for mean GI50 across NCI60 cell lines (MGM): all human cancer cell lines successfully tested, ± standard error, read-out: MGM (mean graph midpoint for growth inhibition). Here is the method: as §1
In another data set the target is T1, Human recombinant Top1 (Homo sapiens, UniProt P11387).
T1 construct: made in house
T1 sequence (P11387 1-765): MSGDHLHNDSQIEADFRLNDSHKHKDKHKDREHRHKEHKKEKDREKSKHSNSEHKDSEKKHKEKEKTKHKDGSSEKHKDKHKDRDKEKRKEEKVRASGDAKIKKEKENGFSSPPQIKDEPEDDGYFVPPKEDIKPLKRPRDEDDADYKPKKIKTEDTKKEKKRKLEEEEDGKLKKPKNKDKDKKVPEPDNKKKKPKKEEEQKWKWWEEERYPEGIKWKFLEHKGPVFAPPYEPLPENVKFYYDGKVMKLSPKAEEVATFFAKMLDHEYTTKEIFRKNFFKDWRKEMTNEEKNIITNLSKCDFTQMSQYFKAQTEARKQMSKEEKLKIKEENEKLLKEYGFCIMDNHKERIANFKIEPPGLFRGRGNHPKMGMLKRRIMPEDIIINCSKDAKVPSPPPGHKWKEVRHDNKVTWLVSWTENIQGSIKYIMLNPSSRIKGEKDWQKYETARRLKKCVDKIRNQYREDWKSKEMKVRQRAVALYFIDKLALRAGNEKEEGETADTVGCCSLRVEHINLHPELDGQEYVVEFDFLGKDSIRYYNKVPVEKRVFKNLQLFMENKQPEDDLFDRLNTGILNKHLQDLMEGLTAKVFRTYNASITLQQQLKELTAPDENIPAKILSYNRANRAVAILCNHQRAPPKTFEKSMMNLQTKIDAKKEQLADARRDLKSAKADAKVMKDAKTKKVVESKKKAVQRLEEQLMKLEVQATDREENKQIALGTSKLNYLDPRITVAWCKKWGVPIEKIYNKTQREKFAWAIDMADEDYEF
Put plainly: Top1-mediated DNA cleavage assay. It counts as biochemical. On the set-up: key to Top1 inhibitory activity (level): 0, no detectable activity; +, weak activity; ++, similar activity to compound 4; +++, greater activity than 4; ++++, equipotent with 1; ++(+) would be between ++ and +++. Conditions: for Top1 inhibitory activity (level): scored relative to compounds 1 and 4; for Top 1 Cleavage: graded relative to 1 μM camptothecin. The protocol: All of the new indenoisoquinoline derivatives were tested in Top1-mediated DNA cleavage assays. For this purpose, a ^32P 3′-end labeled 117-bp DNA fragment was incubated with Top1 at four concentrations of a tested compound. The DNA fragments were separated on 20% PAGE denaturing gels. The Top1 inhibitory activities were assigned on the basis of the visual inspection of the number and intensities of the gel bands corresponding to Top1-mediated DNA cleavage fragments and scored relative to the Top1 inhibitory activity of compounds 1 and 4. Results are expressed in semiquantitative fashion: 0, no detectable activity; +, weak activity; ++, similar activity to compound 4; +++, greater activity than 4; ++++, equipotent with 1. Ambiguous scores (e.g., between two values) are designated with parentheses (e.g., ++(+) would be between ++ and +++). […] After conversion of the hydroxyl to a dimethylcarbamate, the observed Top1 inhibitory activity increased from ++(+) for compound 8 to +++ for compound 10. Introduction of an acetyl group at the 0-2 position yielded compound 11, which was also a Top1 poison with activity at the ++ level. Subsequently, several hydrophobic substituents were attached to the 0-2 position.
Topoisomerase I-Mediated DNA Cleavage Reactions.
Human recombinant Top1 was purified from baculovirus as previously described (Morrell, A., et al., J. Med. Chem. 2007, 50, 2040-2048). DNA cleavage reactions were prepared as previously reported with the exception of the DNA substrate (Strumberg, D., et al., J. Med. Chem. 1999, 42, 446-457). Briefly, a 117-bp DNA oligonucleotide (Integrated DNA Technologies) encompassing the previously identified Top1 cleavage sites in the 161-bp fragment from pBluescript SK(−) phagemid DNA was employed. This 117-bp oligonucleotide contains a single 5′-cytosine overhang, which was 3′-end-labeled by fill-in reaction with [α-^32P]dGTP in React 2 buffer (50 mM Tris-HCl, pH 8.0, […], 50 mM NaCl) with 0.5 unit of DNA polymerase I (Klenow fragment, New England BioLabs). Unincorporated [^32P]dGTP was removed using mini Quick Spin DNA columns (Roche, Indianapolis, Ind.), and the eluate containing the 3′-end-labeled DNA substrate was collected. Approximately 2 nM radiolabeled DNA substrate was incubated with recombinant Top1 in 20 μL of reaction buffer [10 mM Tris-HCl (pH 7.5), 50 mM KCl, 5 mM MgCl2, 0.1 mM EDTA, and 15 μg/mL BSA] at 25° C. for 20 min in the presence of various concentrations of compounds. The reactions were terminated by adding SDS (0.5% final concentration) followed by the addition of two volumes of loading dye (80% formamide, 10 mM sodium hydroxide, 1 mM sodium EDTA, 0.1% xylene cyanol, and 0.1% bromophenol blue). Aliquots of each reaction mixture were subjected to 20% denaturing PAGE. Gels were dried and visualized by using a phosphoimager and ImageQuant software (Molecular Dynamics). For simplicity, cleavage sites were numbered as previously described in the 161-bp fragment.

As a reminder, the GI50 is the concentration that inhibits growth by half. Turning to `COc1cc2c(=O)n(CCCN3CCOCC3)c3c(c2cc1O)C(=O)c1cc2c(cc1-3)OCO2` [Compound 8], the concentration for 50% growth inhibition (GI50) in the data set with HOP-62 (Homo sapiens) stood at 257 nM; with HCT-116 (Homo sapiens), 279 nM; in the data set on SF-539 (Homo sapiens), 335 nM; in the data set with UACC-62 (Homo sapiens) it was 282 nM; in the data set on OVCAR-3 (Homo sapiens), 871 nM; in the data set on SN12C (Homo sapiens), 195 nM. Also, the GI50 was found to be 257 nM in the data set on DU-145 (Homo sapiens) and 144 nM in the data set with MCF-7 (Homo sapiens, MCF7). Further, the mean GI50 across NCI60 cell lines (MGM) in data set [1] was 412 nM. Further, on Human recombinant Top1, the “Top1 inhibitory activity (level)” value was “++(+)”.
Turning to `COc1cc2c3c(n(CCCN4CCOCC4)c(=O)c2cc1O)-c1cc2c(cc1C3=O)OCO2` [Compound 9], the concentration for 50% growth inhibition (GI50) is 10 nM in the data set with HOP-62 (Homo sapiens); 20 nM in the data set with HCT-116 (Homo sapiens); under 10 nM in the data set on SF-539 (Homo sapiens); under 10 nM with UACC-62 (Homo sapiens); 30 nM in the data set on OVCAR-3 (Homo sapiens); under 10 nM with SN12C (Homo sapiens). Also, the 50% growth inhibitory concentration (GI50) is under 10 nM in the data set with DU-145 (Homo sapiens) and under 10 nM with MCF-7 (Homo sapiens, MCF7). Besides, the mean GI50 across NCI60 cell lines (MGM) in data set [1] was found to be 76 ± 28 nM.
On to `COc1cc2c(=O)n(CCCN3CCOCC3)c3c(c2cc1OC(C)=O)C(=O)c1cc2c(cc1-3)OCO2` [Compound 11, 3-Methoxy-6-(3-morpholinopropyl)-5,12-dioxo-6,12-dihydro-5H-[1,3]dioxolo[4′,5′:5,6]indeno[1,2-c]isoquinolin-2-yl Acetate], for which the 50% growth inhibitory concentration (GI50) in the data set on HOP-62 was 18 nM; in the data set on HCT-116, 29 nM; in the data set with SF-539, under 10 nM; in the data set on UACC-62, 18 nM; in the data set on OVCAR-3, 138 nM; with SN12C, under 10 nM. The 50% growth inhibitory concentration (GI50) in the data set with DU-145 and in the data set on MCF-7 was under 10 nM throughout. The “cytotoxicity relative to parent compound (in words)” value in [1] (NCI60) is “greater than the parent 8 by a factor of almost one order of magnitude”. Moreover, in [1], the mean GI50 across NCI60 cell lines (MGM) amounted to 43 ± 19 nM. The “Top 1 Cleavage” value at Human recombinant Top1 is “++ (++, between 50 and 75% activity)”. Besides, at Human recombinant Top1, the “Top1 inhibitory activity (level)” value is “++”.
For the molecule `COC(=O)CCC(=O)Oc1cc2c3c(n(CCCN4CCOCC4)c(=O)c2cc1OC)-c1cc2c(cc1C3=O)OCO2` [Compound 12, 3-Methoxy-6-(3-morpholinopropyl)-5,12-dioxo-6,12-dihydro-5H-[1,3]dioxolo[4′,5′:5,6]indeno[1,2-c]isoquinolin-2-yl Methyl Succinate], the GI50 in the data set with HOP-62 was under 10 nM; with HCT-116, 14 nM; in the data set with SF-539, under 10 nM; in the data set with UACC-62, under 10 nM; with OVCAR-3, 66 nM; with SN12C, under 10 nM. The 50% growth inhibitory concentration (GI50) in the data set on DU-145 and in the data set on MCF-7 was under 10 nM in each case. Also, in data set [1] (NCI60), the “cytotoxicity relative to parent compound (in words)” value is recorded as “greater than the parent 8 by a factor of almost one order of magnitude”. Besides, the mean GI50 across NCI60 cell lines (MGM) in [1] stood at 49 ± 8 nM. Further, the “Top 1 Cleavage” value on Human recombinant Top1 is “+ (+, between 20 and 50% activities)”. Moreover, on Human recombinant Top1, the “Top1 inhibitory activity (level)” value is “+”.
For the molecule `COc1cc2c(=O)n(CCCN3CCOCC3)c3c(c2cc1OC(=O)c1ccccc1)C(=O)c1cc2c(cc1-3)OCO2` [Compound 13, 3-Methoxy-6-(3-morpholinopropyl)-5,12-dioxo-6,12-dihydro-5H-[1,3]dioxolo[4′,5′:5,6]indeno[1,2-c]isoquinolin-2-yl Benzoate], the concentration for 50% growth inhibition (GI50) was 79 nM in the data set with HOP-62; 850 nM in the data set with HCT-116; 37 nM with SF-539; 96 nM with UACC-62; 4570 nM in the data set on OVCAR-3; 54 nM in the data set on SN12C. Besides, the concentration for 50% growth inhibition (GI50) in the data set on DU-145 came out at 51 nM; in the data set on MCF-7, 33 nM. In addition, in [1] (NCI60), the “GI50's against various cell lines (range in words)” value is “micromolar range”. Also, the “cytotoxicity relative to parent compound (in words)” value in [1] (NCI60) is given as “significantly less cytotoxic than their respective parent compounds”. In addition, the mean GI50 across NCI60 cell lines (MGM) in data set [1] was 1500 ± 170 nM. Further, the “Top1 inhibitory activity (in words)” value at Human recombinant Top1 was “weak Top1 poisons”. Moreover, the “Top 1 Cleavage” value at Human recombinant Top1 was “+ (+, between 20 and 50% activities)”. Further, the “Top1 inhibitory activity (level)” value at Human recombinant Top1 is “+”.
